{"source": "patent US11578056B2", "about": "“Solid forms comprising (S)-2-(2,6-dioxopiperidin-3-yl)-4-((2-fluoro-4-((3-morpholinoazetidin-1-yl)methyl)benzyl)amino)isoindoline-1,3-dione and salts thereof, and compositions comprising and methods of using the same” (Celgene Corporation, priority 2019, dated 2023)", "assay_type_in_all_cases": "cell-based", "key": {"Toledo cell line": {"system": "Toledo cell line", "assay": "Hematological cell line viability/apoptosis flow cytometry assay", "details": "Toledo (DLBCL GCB); 120 h", "method_in_brief": "(§1)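 IC50 and EC50 derive from dose–response curves for DMSO-normalized live-cell counts and Annexin V-positive fraction, respectively. Both were measured by flow cytometry after 120 h of treatment at 0.00015–10 μM compound, 0.1% DMSO.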"}, "SU-DHL-1 cell line": {"system": "SU-DHL-1 cell line", "assay": "Hematological cell line viability/apoptosis flow cytometry assay", "details": "SU-DHL-1 (DLBCL); 120 h", "method_in_brief": "as §1"}, "SK-MM-1 cell line": {"system": "SK-MM-1 cell line", "assay": "Hematological cell line viability/apoptosis flow cytometry assay", "details": "SK-MM-1 (MM, PCL), 120 h", "method_in_brief": "as §1"}, "U-2904 cell line": {"system": "U-2904 cell line", "assay": "Hematological cell line viability/apoptosis flow cytometry assay", "details": "U-2904 (DLBCL), 120 h", "method_in_brief": "as §1"}, "hematological cell lines": {"system": "hematological cell lines", "assay": "Hematological cell line viability/apoptosis flow cytometry assay, whole panel", "details": "panel of hematological cell lines, 0.00015 to 10 μM, 5 days", "protocol": "Cell Proliferation and Viability Assay Using Hematological Cell Lines: The following exemplary anti-proliferative assay uses exemplary hematological cell lines in the following. The in vitro growth inhibitory activity of Compound 1 described herein was evaluated using a 384-well flow cytometry assay.\nThe cell lines were plated in 384-well flat bottom plates and assessed with increasing concentrations of compound ranging from 0.00015 to 10 μM or dimethyl sulfoxide (DMSO) control. The final concentration of DMSO was 0.1% (v/v). Following the addition of Compound 1 or DMSO and incubation for 120 hours, cell number and cell death were analyzed by flow cytometry (Attune®, Thermo Fisher) using Annexin V and the live-cell impermeant DNA dye, DRAQ7. […]\nFlow cytometry data analysis was then performed using the Flow Jo_v10 software to determine the number of viable cells (Annexin V and DRAQ7 double negative staining cells) and percentage of apoptotic cells (Annexin V positive cells) for each condition. […] The IC50 (50% inhibitory concentration) and Emax (maximum efficacy achieved) values were then calculated by performing nonlinear regression curve fitting using log(inhibitor) vs. normalized response—variable slope analysis on GraphPad Prism 7.03. Area under the curve (AUC) was calculated by performing area under curve analysis on GraphPad Prism 7.03. […]"}, "SU-DHL-4 cell line": {"system": "SU-DHL-4 cell line", "assay": "Cell proliferation and viability assay using SU-DHL-4 cell line (CellTiter-Glo, 1536-well)", "details": "Homo sapiens; SU-DHL-4, 120 hours, Cell Titer-Glo luminescence", "protocol": "Cell Proliferation and Viability Assay Using SU-DHL-4 Cell Line: The following exemplary assay uses a DLBCL cell line, for example, the SU-DHL-4 cell line (Deutsche Sammlung von Mikroorganismen and Zellkulturen GmbH [DSMZ]: catalogue number ACC-495) at 120 hours post-treatment. The seeding density for SU-DHL-4 can be optimized to ensure assay linearity in 1536-well plates.\nIncreasing concentrations (0.5 nM to 10 μM) of Compound 1 were each spotted in a 20-point dilution fashion (unevenly spaced data points) via an acoustic dispenser (EDC ATS-100) into an empty 1536-well plate. The DMSO concentration was kept constant for a final assay concentration of 0.1% DMSO. […] At the time when exposure of cells to compound began (to), initial viable cell number was assessed via Cell Titer-Gb® Luminescent Cell Viability Assay at a 1 vol: 2 vol ratio according to manufacturer's instructions (Promega Corporation, Madison, Wis.) by quantifying the level of luminescence generated by adenosine-5′-triphosphate (ATP) present in viable cells. After 120 hours, cell viability of the treated cells was assessed via Cell Titer-Gb® and read for luminescence. All growth inhibition curves were processed and evaluated using Activity Base (IDBS, Alameda, Calif.). […]"}}, "note": "pEC50, pIC50: −log10 of the molar value.", "data": [{"compound": "O=C1CC[C@H](N2C(=O)c3cccc(NCc4ccc(CN5CC(N6CCOCC6)C5)cc4F)c3C2=O)C(=O)N1", "note": "[Compound 1, (S)-2-(2,6-dioxopiperidin-3-yl)-4-((2-fluoro-4-((3-morpholinoazetidin-1-yl)methyl)benzyl)amino)isoindoline-1,3-dione]", "values": [{"measurement": "% Viable Cells AUC", "setting": "Toledo cell line", "value": 112.3}, {"measurement": "% Viable Cells Emax", "setting": "Toledo cell line", "value": 8.56, "unit": "%"}, {"measurement": "Apoptosis AUC", "setting": "Toledo cell line", "value": 231.4}, {"measurement": "Apoptosis Ymax", "setting": "Toledo cell line", "value": 27.5, "unit": "%"}, {"measurement": "% Viable Cells AUC", "setting": "SU-DHL-1 cell line", "value": 31.14}, {"measurement": "% Viable Cells Emax", "setting": "SU-DHL-1 cell line", "value": 2.485, "unit": "%"}, {"measurement": "Apoptosis AUC", "setting": "SU-DHL-1 cell line", "value": 690.1}, {"measurement": "Apoptosis Ymax", "setting": "SU-DHL-1 cell line", "value": 73.83, "unit": "%"}, {"measurement": "% Viable Cells AUC", "setting": "SK-MM-1 cell line", "value": 202.2}, {"measurement": "% Viable Cells Emax", "setting": "SK-MM-1 cell line", "value": 3, "unit": "%"}, {"measurement": "Apoptosis AUC", "setting": "SK-MM-1 cell line", "value": 90.99}, {"measurement": "Apoptosis Ymax", "setting": "SK-MM-1 cell line", "value": 44.5, "unit": "%"}, {"measurement": "pEC50", "setting": "SK-MM-1 cell line", "value": 4.06}, {"measurement": "pIC50", "setting": "SK-MM-1 cell line; read-out: % Viable Cells IC50", "value": 9.10}, {"measurement": "% Viable Cells AUC", "setting": "U-2904 cell line", "value": 334.1}, {"measurement": "% Viable Cells Emax", "setting": "U-2904 cell line", "value": 7.609, "unit": "%"}, {"measurement": "Apoptosis AUC", "setting": "U-2904 cell line", "value": 456.1}, {"measurement": "Apoptosis Ymax", "setting": "U-2904 cell line", "value": 77.39, "unit": "%"}, {"measurement": "pEC50", "setting": "U-2904 cell line", "value": 5.48}, {"measurement": "pIC50", "setting": "U-2904 cell line; read-out: % Viable Cells IC50", "value": 6.70}, {"measurement": "antiproliferative activity and/or apoptotic effects", "setting": "hematological cell lines", "value": "antiproliferative activity and/or apoptotic effects in almost all hematological cell lines tested"}, {"measurement": "pIC50", "setting": "SU-DHL-4 cell line", "value": "> 6.70"}]}]}
